Values quoted from earlier work as cited in patent publication US10755801B2, “Identifying peptides having T-cell-exposed motifs with known frequency of occurrence in a reference database” (IOGENETICS, LLC, priority 2014, dated 2020).
Ends that are not written are not given here.

System: CD8+ responses, HLA A 0201 restricted
Conditions: MART-1 peptides, A*0201, melanoma patients; Kawakami

Which “CD8+ T-cell response” value does the source give for GIGILTVIL here?
Its value is “stimulated a response”.
